According to patent US7488820B2, “Naphthofluorescein-based metal sensors, and methods of making and using the same” (Massachusetts Institute of Technology, priority 2004, dated 2009):

Columns and labels:
[1] = Ratiometric fluorescence responses (F624/F528) of MS4 and MS5 to various metal ions; settings: 5 μM probe, 50 equiv metal ion, 50 mM HEPES, 100 mM KCl, pH 8, excitation 499 nm
Description: FIG. 9 depicts the ratiometric fluorescence spectroscopic responses of MS4 to various metal ions. Bars represent the ratio of fluorescence intensities collected at 624 and 528 nm (F624/F528). All spectra were acquired in 50 mM HEPES, 100 mM KCl, pH 8. Grey bars represent the addition of an excess of the appropriate metal ion (50 equiv metal ion of interest) to a 5 μM solution of MS4. Dark grey bars represent the subsequent addition of 50 equiv Hg^2+ to the solution. Excitation was provided at 499 nm.
FIG. 10 depicts the ratiometric fluorescence spectroscopic responses of MS5 to various metal ions. Bars represent the ratio of fluorescence intensities collected at 624 and 528 nm (F624/F528). All spectra were acquired in 50 mM HEPES, 100 mM KCl, pH 8. Grey bars represent the addition of an excess of the appropriate metal ion (50 equiv metal ion of interest) to a 5 μM solution of MS5. Dark grey bars represent the subsequent addition of 50 equiv Hg^2+ to the solution. Excitation was provided at 499 nm.
Millipore water was used to prepare all aqueous solutions. […] Fluorescence spectra were collected by using a Photon Technology International (Lawrenceville, N.J.) Quanta Master 4L-format scanning spectrofluorimeter equipped with an LPS-220B 75-W xenon lamp and power supply, A-1010B lamp housing with integrated igniter, switchable 814 photon-counting/analog PMT detector, and a MD-5020 motor driver. […]

[2] = Metal ion selectivity of the ratiometric fluorescence response (F624/F528) of ZNP1
Description: FIG. 4. Ratiometric fluorescence spectroscopic responses of ZNP1 to various metal ions. Bars represent the ratio of fluorescence intensities collected at 624 and 528 nm (F624/F528). All spectra were acquired in 50 mM HEPES, 100 mM KCl, pH 7.5. White bars represent the addition of an excess of the appropriate metal ion (2 mM for Ca^2+ and Mg^2+, 100 μM for all other metal ions) to a 10 μM solution of ZNP1. Grey bars represent the subsequent addition of 100 μM Zn^2+ to the solution. Excitation was provided at 499 nm.
The emission profiles of apo or Zn^2+-bound ZNP1 are unperturbed in the presence of 2 mM Ca^2+ or Mg^2+, indicating a degree of selectivity for Zn^2+ over these biologically competing alkaline earth cations.
Millipore water was used to prepare all aqueous solutions, which were passed through 0.2 um cellulose filters prior to use. All spectroscopic measurements were performed under simulated physiological conditions using buffer solutions containing 50 mM HEPES, 4-(2-hydroxyethyl)-1-piperazineethanesulfonic acid, and 100 mM KCl adjusted to pH 7.5. A glass electrode (Orion), calibrated prior to each use, was used to determine solution pH. Solutions of Zn^2+ were prepared from 100 mM stock solutions of ZnCl2 in water. Absorption spectra were recorded on a Hewlett-Packard 8453A diode array spectrophotometer, and fluorescence spectra on a Photon Technology International (PTI) Quanta Master 4 L-format scanning spectrofluorimeter equipped with an LPS-220B 75-watt xenon lamp and power supply, A-1010B lamp housing with integrated igniter, switchable 814 photon-counting/analog photomultiplier detection unit, and MD-5020 motor driver. Samples for absorption and emission measurements were contained in 1 cm×1 cm quartz cuvettes (3.5 mL volume, Stama). The experiments for measuring quantum yields, apparent dissociation constants (Kd), and metal ion selectivities were performed by using standard protocols. Quantum yields were determined by reference to fluorescein in 0.1 N NaOH (Φ=0.95). Confocal fluorescence imaging experiments were performed with a Zeiss LSM510 laser scanning microscopy system containing an Axiovert 200M inverted fluorescence microscope. The microscope was equipped with an argon ion laser (488-nm excitation) and objective lenses (100×), and scanning was performed using the META detection system operating in lambda mode (Zeiss) with 10.7 nm collection windows. During imaging measurements, cell samples were kept on the microscope stage in a CTI-3700 incubator at 37° C. under 5% CO2. Additions of Zn^2+ as the pyrithione complex (2-mercaptopyridine N-oxide), TPEN [N,N,N′,N′-tetra(2-picolyl)ethylenediamine], or SNOC (S-nitrosocysteine) to cell samples were performed directly on the microscope stage by bath application to the media. […]

[3] = Fluorescence spectroscopy: quantum yield and ratiometric emission response to Zn2+; format: physicochemical; settings: pH 7.5
Description: FIG. 3. Ratiometric fluorescence spectroscopic response of 20 μM ZNP1 to buffered Zn^2+ solutions. Spectra were acquired in 50 mM HEPES, 100 mM KCl, pH 7.5. Excitation was provided at 499 nm. A standard EDTA/Ca^2+/Zn^2+ dual-metal buffer system was employed to deliver controlled concentrations of buffered free Zn^2+. The spectra shown are for free Zn^2+ buffered at 0, 0.17, 0.42, 0.79, 1.3, 2.1, 3.4, 5.6, and 10.2 nM, respectively.
Quantum yield, Φ, may be obtained by comparison of the integrated area of the corrected emission spectrum of the sample with that of a reference solution. A preferred reference solution is a solution of fluorescein in 0.1 N NaOH, quantum efficiency 0.95. The concentration of the reference is adjusted to match the absorbance, Abs, of the test sample. The quantum yields may be calculated using the following equation:
ZNP1 was evaluated at physiological ionic strength and pH [50 mM HEPES (4-(2-hydroxyethyl)-1-piperazineethanesulfonic acid), 100 mM KCl, pH 7.5] in the presence of EDTA (ethylenediaminetetraacetic acid) to scavenge adventitious metal ions. […] The quantum yield for apo ZNP1 is 0.02.
The observed changes in absorption and emission spectra occur up to a 1:1 [Zn^2+][ZNP1] ratio, indicating the likely formation of a 1:1 complex. Upon addition of Zn^2+, the visible absorption profile of the ZNP1 chemosensor red shifts to a single broad peak centered at 547 nm (ε=2.2×10^4 M^−1cm^−1). Excitation at 499 nm produces a fluorescence spectrum featuring one dominant emission band centered at 624 nm with a minor component centered at 545 nm (FIG. 3). The quantum yield for Zn^2+-ZNP1 complex is 0.05. […] The ratio of naphthofluorescein- to fluorescein-like emission intensities (λ624/λ528) upon 499-nm excitation varies from 0.4 in the absence of Zn^2+ to 7.1 in the presence of Zn^2+, an 18-fold increase.
Millipore water was used to prepare all aqueous solutions, which were passed through 0.2 um cellulose filters prior to use. All spectroscopic measurements were performed under simulated physiological conditions using buffer solutions containing 50 mM HEPES, 4-(2-hydroxyethyl)-1-piperazineethanesulfonic acid, and 100 mM KCl adjusted to pH 7.5. A glass electrode (Orion), calibrated prior to each use, was used to determine solution pH. Solutions of Zn^2+ were prepared from 100 mM stock solutions of ZnCl2 in water. Absorption spectra were recorded on a Hewlett-Packard 8453A diode array spectrophotometer, and fluorescence spectra on a Photon Technology International (PTI) Quanta Master 4 L-format scanning spectrofluorimeter equipped with an LPS-220B 75-watt xenon lamp and power supply, A-1010B lamp housing with integrated igniter, switchable 814 photon-counting/analog photomultiplier detection unit, and MD-5020 motor driver. Samples for absorption and emission measurements were contained in 1 cm×1 cm quartz cuvettes (3.5 mL volume, Stama). The experiments for measuring quantum yields, apparent dissociation constants (Kd), and metal ion selectivities were performed by using standard protocols. Quantum yields were determined by reference to fluorescein in 0.1 N NaOH (Φ=0.95). Confocal fluorescence imaging experiments were performed with a Zeiss LSM510 laser scanning microscopy system containing an Axiovert 200M inverted fluorescence microscope. The microscope was equipped with an argon ion laser (488-nm excitation) and objective lenses (100×), and scanning was performed using the META detection system operating in lambda mode (Zeiss) with 10.7 nm collection windows. During imaging measurements, cell samples were kept on the microscope stage in a CTI-3700 incubator at 37° C. under 5% CO2. Additions of Zn^2+ as the pyrithione complex (2-mercaptopyridine N-oxide), TPEN [N,N,N′,N′-tetra(2-picolyl)ethylenediamine], or SNOC (S-nitrosocysteine) to cell samples were performed directly on the microscope stage by bath application to the media. SNOC was prepared immediately before use.

[4] = tested on: COS-7 cells; assay: Cell membrane permeability and ratio confocal fluorescence imaging of intracellular Zn2+ in live COS-7 cells; format: cell-based
Description: FIG. 5. Ratio confocal fluorescence imaging in COS-7 cells using the Zeiss LSM510 META system operating in the lambda mode. Fluorescence was collected in 10.7 nm optical windows centered at 612 and 526 nm. Pseudocolor figures depict the ratio of fluorescence intensities at these two emission wavelengths. (a) Ratio confocal fluorescence images of live COS-7 cells labeled with ZNP1. Incubation of cells with 20 μM ZNP1-Ac for 20 min at 37° C. (left), ZNP1-stained cells loaded with 50 μM Zn(pyrithione)2 for 5 min (middle), and reversal of the cytosolic ratio enhancements with 100 μM TPEN (right). Confocal images were taken from a middle optical section (vertical dimension) of the cell samples. (b) Confocal fluorescence images of NO-triggered release of endogenous Zn^2+ in live COS-7 cells. Incubation of cells with 20 μM ZNP1-Ac for 20 min at 37° C. (left), ZNP1-stained cells treated with 10 mM SNOC (S-nitrosocysteine, middle) for 1 hr, and reversal of the observed ratio increases with 2 mM TPEN (right). Confocal images were taken from a middle optical section (vertical dimension) of the cell samples.
We therefore prepared the non-fluorescent diacetate derivative of ZNP1, ZNP1-Ac, anticipating that this more lipophilic derivative would permeate the cell and be transformed to fluorescent ZNP1 by the action of intracellular esterases. […] Ratiometric fluorescence imaging of ZNP1-stained cells is readily performed by using the META detection system operating in lambda mode with optical windows centered at 612 and 526 nm. […] Prompt increases in the ratio of cytosolic fluorescence intensities collected at 612 and 526 nm are observed upon the addition of exogenous Zn^2+ (50 μM) carried by the ionophore pyrithione (2-mercaptopyridine N-oxide, FIG. 5a). […]
The successful use of ZNP1 for monitoring changes in intracellular Zn^2+ concentrations using ratiometric fluorescence imaging led us to apply this probe for detecting endogenous pools of intracellular Zn^2+. […]

| Compound | selectivity for Hg2+ over other metal ions (in words) [1] | selectivity for Zn2+ over other metal ions (in words) [2] | emission profiles of apo or Zn2+-bound probe in the presence of Ca2+ or Mg2+ ([2]; 10 μM probe, 2 mM Ca2+ or Mg2+, pH 7.5) | ratiometric response to subsequent addition of 100 μM Zn2+ in the presence of first-row transition metal ions ([2]; 10 μM probe, Cu2+, Ni2+, Co2+, Fe2+, Mn2+ 100 μM, then 100 μM Zn2+) | change in emission ratio with Cu2+, Ni2+, Co2+, Fe2+, Mn2+ ([2]; 10 μM probe, metal ions at 10-fold excess over probe) | time of fluorescence response to buffered Zn2+ ([3]; 20 μM probe, free Zn2+ 0-10.2 nM) | increase of λ624/λ528 emission ratio on Zn2+ binding ([3]; 499-nm excitation) [fold] | ratio of emission intensities λ624/λ528 in the absence of Zn2+ ([3]; 499-nm excitation) | ratio of emission intensities λ624/λ528 in the presence of Zn2+ ([3]; 499-nm excitation) | quantum yield, Zn2+ complex ([3]; Zn2+-bound, 50 mM HEPES, 100 mM KCl) | quantum yield, apo ([3]; no Zn2+, EDTA present, 50 mM HEPES, 100 mM KCl, reference fluorescein in 0.1 N NaOH) | permeability to cell membranes ([4]; initial experiments) | monitoring of intracellular [Zn2+] changes (612/526 nm ratio) ([4]; stained COS-7 cells, 50 μM Zn2+/pyrithione, then 100 μM TPEN) | detection of NO-triggered release of endogenous Zn2+ (612/526 nm ratio) ([4]; stained COS-7 cells, 10 mM S-nitrosocysteine, reversed by 2 mM TPEN) |
| --- | --- | --- | --- | --- | --- | --- | --- | --- | --- | --- | --- | --- | --- | --- |
| CCSCCN(Cc1ccccn1)Cc1ccccc1NCc1c2oc3c(ccc4cc(O)ccc43)c(-c3ccccc3C(=O)O)c-2ccc1=O [MS4] | selectivity for Hg^2+ over metal ions such as Na^+, Ca^2+, and Mg^2+ | – | – | – | – | – | – | – | – | – | – | – | – | – |
| CCSCCN(CCSCC)Cc1ccccc1NCc1c2oc3c(ccc4cc(O)ccc43)c(-c3ccccc3C(=O)O)c-2ccc1=O [MS5, 2-{11-[(2-{[Bis-(2-ethylsulfanylethyl)amino]methyl}phenylamino)methyl]-3-hydroxy-10-oxo-10H-benzo[c]xanthen-7-yl}benzoic acid] | selectivity for Hg^2+ over metal ions such as Na^+, Ca^2+, and Mg^2+ | – | – | – | – | – | – | – | – | – | – | – | – | – |
| O=C(O)c1ccccc1-c1c2ccc(=O)c(CNc3ccccc3CN(Cc3ccccn3)Cc3ccccn3)c-2oc2c1ccc1cc(O)ccc12 [ZNP1, 4-[12-{Bis(2-pyridylmethyl)aminomethyl}-N-methylaniline]-3,10-dibenzoate-spiro[7H-benzo[c]xanthen-7,1′(3′H)-isobenzofuran]-3′-one] | – | selectivity for Zn^2+ over metal ions such as Na^+, K^+, Ca^2+, and Mg^2+ | unperturbed | only the sample containing Mn^2+ affords a ratiometric fluorescence response | no discernable change in emission ratios | immediately upon mixing | 18 | 0.4 | 7.1 | 0.05 | 0.02 | impermeable to cell membranes | can monitor changes in intracellular [Zn^2+] reversibly | establishes a rise in intracellular [Zn^2+] |
